From publication PMC4549706, “Rational Design of Highly Potent and Slow-Binding Cytochrome bc1 Inhibitor as Fungicide by Computational Substitution Optimization” (Scientific Reports, 2015)
Read-outs that look alike come from different tables or passages of the source.

How the values were obtained:
[1] = biological target: T1, porcine succinate-cytochrome c reductase (SCR, the mixture of complex II and bc1) (Sus scrofa, UniProt P24964); details: previous data, cited from earlier work
T1 construct: T h e S C R f r o m p o r c i n e h e a r t; from tissue; host or cells: porcine heart
T1 sequence (P24964 whole entry, one chain of several): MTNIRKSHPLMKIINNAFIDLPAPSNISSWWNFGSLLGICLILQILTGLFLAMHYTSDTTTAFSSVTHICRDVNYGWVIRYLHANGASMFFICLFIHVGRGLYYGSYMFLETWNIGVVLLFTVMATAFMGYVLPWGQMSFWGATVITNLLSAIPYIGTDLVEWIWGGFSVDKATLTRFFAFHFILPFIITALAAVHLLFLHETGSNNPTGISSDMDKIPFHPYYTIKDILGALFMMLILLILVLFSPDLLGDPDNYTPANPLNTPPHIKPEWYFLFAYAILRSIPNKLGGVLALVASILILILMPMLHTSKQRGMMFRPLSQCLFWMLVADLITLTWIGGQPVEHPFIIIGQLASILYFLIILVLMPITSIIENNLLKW

bc1 complex = biological target: T2, bc1 complex (Sus scrofa, UniProt P24964); assay: bc1 complex activity, DBH2-cytochrome c system (Assay 3); type: biochemical, porcine
T2 construct: T h e S C R f r o m p o r c i n e h e a r t; from tissue; host or cells: porcine heart
T2 sequence (P24964 whole entry, one chain of several): as above
Procedure: Figure 3 Inhibitory kinetics of bc1 complex. (A) Chemical structures of AZ (azoxystrobin) and its analogues, compound 1 and compound 18. These compounds have a common pharmacophore structure: methoxyacrylate (MOA). […] Each reaction mixture contains phosphate buffered saline (PBS; 100 mM, pH 6.5), ethylenediaminetetraacetic acid (EDTA; 2 mM), lauryl maltoside (750 μM), oxidised cytochrome c (100 μM), SCR (0.05 nM), DBH2 (20–120 μM) and a specified amount of AZ (1, 0 nM; 2, 500 nM; 3, 1000 nM; 4, 2000 nM; 5, 3000 nM; and 6, 5000 nM). (C) Compound 1 is non-competitive with respect to cytochrome c. The reaction mixture contains 100 mM, pH 7.4), EDTA (0.3 mM), succinate (20 mM), SCR (0.1 nM), cytochrome c (1.13–15.6 μM), and a series of concentrations of compound 1 (1, 0 nM; 2, 10 nM; 3, 20 nM; 4, 40 nM; and 5, 60 nM). (D) Compound 1 is competitive with respect to DBH2. Each reaction mixture contains 100 mM, pH 6.5), EDTA (2 mM), lauryl maltoside (750 μM), oxidised cytochrome c (100 μM), SCR (0.05 nM), DBH2 (20–120 μM) and a specified amount of compound 1 (1, 0 nM; 2, 50 nM; 3, 100 nM; 4, 200 nM; 5, 300 nM; and 6, 500 nM).
Figure 4 Slow-binding inhibition mechanism. (A,B) Effect of various concentrations of cytochrome c and compound 18 on the inhibition of SCR activity. Each reaction mixture contains 100 mM, pH 7.4), EDTA (0.3 mM), succinate (20 mM), SCR (0.1 nM), and indicated amounts of cytochrome c and compound 18. The assays were performed in the presence of (A) 18 (35 nM) and a specified amount of cytochrome c (1, 4 μM; 2, 8 μM; 3, 20 μM; and 4, 48 μM) or (B) cytochrome c (60 μM) and various concentrations of compound 18 (1, 0 nM; 2, 15 nM; 3, 20 nM; 4, 30 nM; 5, 40 nM; and 6, 50 nM). Experimental data are shown as coloured dots and theoretical values are represented as black solid lines. Insets: plots of Kobs against concentration of (A) cytochrome c and (B) compound 18. […] Each reaction mixture contains 100 mM, pH 6.5), EDTA (2 mM), lauryl maltoside (750 μM), oxidised cytochrome c (100 μM), SCR (0.05 nM), and indicated amounts of DBH2 and compound 18. Two representative sets of inhibitory assays were performed in the presence of (C) DBH2 (20 μM) and a specified amount of compound 18 (1, 20 nM; 2, 40 nM; 3, 60 nM; 4, 80 nM), or (D) DBH2 (120 μM) and a specified amount of compound 18 (1, 40 nM; 2, 80 nM; 3, 120 nM; 4, 180 nM). Insets: plots of Kobs against concentration of compound 18. (E) Plot of the apparent rate constant A against concentration of DBH2. Inset: Plot of 1/A against concentration of DBH2. (F) Plot of the apparent rate constant B against concentration of DBH2.
The porcine succinate-cytochrome c reductase (SCR, the mixture of complex II and bc1) was prepared essentially according to the previously reported method. The enzymatic activities of SCR, complex II, and bc1 complex were analyzed in respective reaction mixtures as reported previously. Kinetic analyses for the inhibition mechanism were performed as previously described. […]
inhibitory kinetics study of bc1 inhibitors 8. […]
synthesized compounds against bc1 complex were examined by SCR. As previously described 9, the combined activity of SCR can be determined by using succinate and cytochrome c as substrates (Assay 1). We also measured the activity of complex II by using succinate and 2,6-dichloroindophenol (DCIP) as substrates (Assay 2), or the activity of bc1 complex by using decylubiquinol (DBH2) and cytochrome c as substrates (Assay 3). […]
redA 10, was used to represent the enzyme concentration. The three redox reactions used in this study were summarized as follows. […]

[2] = tested on: Sphaerotheca fuliginea (Schlecht.) Poll.; assay: In vivo fungus growth inhibitory rate at 200 mg/L, powdery mildew
Description: Based on the above in vitro study, compounds with nanomolar and subnanomolar Ki values were selected from the total 21 newly synthezised compounds for further studies. Pesticide likeness, defined as a complex balance of various physicochemical properties and structure features, can evaluate whether a molecule is similar to the known pesticides. After the filtration of pesticide likeness, seven compounds were kept to adhere to our previously defined rules for pesticide-likeness including molecular weight (MW) ≤ 435 Da, ClogP ≤ 6, number of H-bond acceptors (HBA) ≤ 6, number of H-bond donors (HBD) ≤ 2, number of rotatable bonds (ROB) ≤ 9, and number of aromatic bonds (ARB) ≤ 17 (Table 1)[24]. […] Therefore, compound 18 was recognized as lead compound for subsequent studies.
[a] Compounds are named as “series number-site number plus substitution group number” a: -F, b: -Cl, c:
-Br, d: -NO2, e: -CH3, f: -CF3, g: -OCH3, h: -OH, i: -NH2, j: -COOH.
[b] Substitution number and group.
[c] CH is “series 1” and N is “series 2”. […]
Table S2 Fungus growth inhibitory rate of target compounds (200 mg/L).
Comp. No. R X Sphaerotheca fuliginea Pseudoperonospora cubensis

CO/C=C(/C(=O)OC)c1ccccc1Oc1cc(Oc2ccccc2C#N)ncn1 [AZ, Azoxystrobin, reference compound]
Ki ([1]; inhibition of SCR activity): 298 nM | inhibition type with respect to cytochrome c [1]: non-competitive | Ki (bc1 complex): 395 ± 19.6 nM | inhibition type with respect to DBH2 (bc1 complex; Assay 3, varied DBH2): competitive inhibitor

COC=C(C(=O)OC)c1ccccc1CSc1nc2cc(OC)ccc2s1 [Compound 18]
Fungus growth inhibitory rate, Sphaerotheca fuliginea [2]: completely inhibited | Fungus growth inhibitory rate, Sphaerotheca fuliginea ([2]; listed as Comp. 18): 100% | Ki (bc1 complex): 13.4 ± 0.6 nM | inhibition type with respect to DBH2 (bc1 complex; Assay 3, varied DBH2): competitive inhibitor | microscopic inhibition rate constant k+0 (bc1 complex; Assay 3, varied DBH2): 380000 ± 10000 M⁻¹ s⁻¹ | microscopic inhibition rate constant k−0 (bc1 complex; Assay 3, varied DBH2): 0.00509 ± 0.00009 s⁻¹
